Laboratory results: ChEMBL document CHEMBL5291721, “A preclinical secondary pharmacology resource illuminates target-adverse drug reaction associations of marketed drugs” (Nat Commun, 2023)

Experiments:
Histamine H1 receptor = Histamine H1 receptor (Homo sapiens, UniProt P35367)
[1] = biological target: T1, Endothelin receptor type B (Homo sapiens, UniProt P24530)
T1 sequence (P24530 whole entry): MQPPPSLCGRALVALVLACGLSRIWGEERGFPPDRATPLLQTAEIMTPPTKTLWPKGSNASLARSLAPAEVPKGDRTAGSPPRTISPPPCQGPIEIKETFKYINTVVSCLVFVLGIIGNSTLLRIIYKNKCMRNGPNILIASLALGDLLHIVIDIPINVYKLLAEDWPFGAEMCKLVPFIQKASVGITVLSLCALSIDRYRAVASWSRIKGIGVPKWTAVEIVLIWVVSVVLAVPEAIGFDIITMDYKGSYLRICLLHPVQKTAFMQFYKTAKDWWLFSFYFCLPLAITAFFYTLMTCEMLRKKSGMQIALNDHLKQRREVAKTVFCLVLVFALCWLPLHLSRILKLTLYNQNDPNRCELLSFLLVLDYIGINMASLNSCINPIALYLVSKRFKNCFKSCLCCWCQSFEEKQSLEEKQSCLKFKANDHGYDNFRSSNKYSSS

[2] = biological target: T2, Corticotropin-releasing factor receptor 1 (Homo sapiens, UniProt P34998)
T2 sequence (P34998 whole entry): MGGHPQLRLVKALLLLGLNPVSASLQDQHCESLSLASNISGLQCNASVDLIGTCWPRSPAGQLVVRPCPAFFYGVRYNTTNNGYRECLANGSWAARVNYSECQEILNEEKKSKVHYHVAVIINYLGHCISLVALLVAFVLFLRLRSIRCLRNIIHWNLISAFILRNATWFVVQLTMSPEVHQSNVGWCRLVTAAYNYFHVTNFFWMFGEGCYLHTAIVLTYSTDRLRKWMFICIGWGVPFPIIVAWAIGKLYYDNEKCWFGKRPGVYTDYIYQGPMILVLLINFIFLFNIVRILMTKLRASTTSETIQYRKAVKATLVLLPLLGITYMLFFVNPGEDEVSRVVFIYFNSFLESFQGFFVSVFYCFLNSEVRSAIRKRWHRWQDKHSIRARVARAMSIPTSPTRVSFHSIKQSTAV

[3] = biological target: Gamma-aminobutyric acid receptor subunit alpha-1/alpha-2/beta-2/gamma-2 (Homo sapiens, UniProt P14867+P18507+P47869+P47870); type: protein-complex assay
Chain of Gamma-aminobutyric acid receptor subunit alpha-1/alpha-2/beta-2/gamma-2 (P14867 whole entry): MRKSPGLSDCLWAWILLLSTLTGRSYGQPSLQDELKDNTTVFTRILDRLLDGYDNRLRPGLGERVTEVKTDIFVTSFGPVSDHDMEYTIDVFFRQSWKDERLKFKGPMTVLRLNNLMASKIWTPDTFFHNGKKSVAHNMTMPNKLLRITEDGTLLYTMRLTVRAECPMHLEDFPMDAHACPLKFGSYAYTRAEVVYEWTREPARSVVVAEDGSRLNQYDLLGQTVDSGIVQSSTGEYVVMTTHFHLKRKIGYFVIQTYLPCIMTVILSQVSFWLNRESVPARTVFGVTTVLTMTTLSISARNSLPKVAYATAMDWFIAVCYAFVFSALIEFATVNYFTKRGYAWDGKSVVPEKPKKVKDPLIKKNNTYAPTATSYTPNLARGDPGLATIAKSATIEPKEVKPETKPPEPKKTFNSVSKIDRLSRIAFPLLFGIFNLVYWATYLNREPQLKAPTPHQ
Chain of Gamma-aminobutyric acid receptor subunit alpha-1/alpha-2/beta-2/gamma-2 (P47870 whole entry): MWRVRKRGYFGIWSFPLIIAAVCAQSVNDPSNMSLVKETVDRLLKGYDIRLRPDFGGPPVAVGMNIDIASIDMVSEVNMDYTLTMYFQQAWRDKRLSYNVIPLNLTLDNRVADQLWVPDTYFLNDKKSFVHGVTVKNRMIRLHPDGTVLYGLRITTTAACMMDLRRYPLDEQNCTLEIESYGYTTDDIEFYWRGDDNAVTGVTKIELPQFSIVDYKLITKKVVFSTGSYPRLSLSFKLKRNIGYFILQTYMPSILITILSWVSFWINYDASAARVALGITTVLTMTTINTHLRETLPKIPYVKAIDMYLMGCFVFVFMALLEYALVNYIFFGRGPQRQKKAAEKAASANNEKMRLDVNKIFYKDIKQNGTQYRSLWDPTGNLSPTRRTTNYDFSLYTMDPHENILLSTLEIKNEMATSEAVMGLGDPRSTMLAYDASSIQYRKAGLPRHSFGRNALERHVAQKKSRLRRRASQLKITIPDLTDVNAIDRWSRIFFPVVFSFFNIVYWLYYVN
Chain of Gamma-aminobutyric acid receptor subunit alpha-1/alpha-2/beta-2/gamma-2 (P18507 whole entry): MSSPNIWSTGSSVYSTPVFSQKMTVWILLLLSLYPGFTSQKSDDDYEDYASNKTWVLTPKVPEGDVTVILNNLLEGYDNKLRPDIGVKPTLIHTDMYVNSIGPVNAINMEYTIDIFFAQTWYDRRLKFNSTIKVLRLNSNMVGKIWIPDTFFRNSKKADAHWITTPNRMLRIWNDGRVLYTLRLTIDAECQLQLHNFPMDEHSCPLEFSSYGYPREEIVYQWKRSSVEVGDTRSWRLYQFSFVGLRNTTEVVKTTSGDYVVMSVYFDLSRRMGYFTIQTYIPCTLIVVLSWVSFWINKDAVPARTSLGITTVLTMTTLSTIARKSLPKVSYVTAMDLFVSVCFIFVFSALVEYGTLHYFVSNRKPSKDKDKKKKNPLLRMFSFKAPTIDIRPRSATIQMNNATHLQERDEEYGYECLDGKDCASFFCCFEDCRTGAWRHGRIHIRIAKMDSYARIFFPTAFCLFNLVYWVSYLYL
Chain of Gamma-aminobutyric acid receptor subunit alpha-1/alpha-2/beta-2/gamma-2 (P47869 whole entry): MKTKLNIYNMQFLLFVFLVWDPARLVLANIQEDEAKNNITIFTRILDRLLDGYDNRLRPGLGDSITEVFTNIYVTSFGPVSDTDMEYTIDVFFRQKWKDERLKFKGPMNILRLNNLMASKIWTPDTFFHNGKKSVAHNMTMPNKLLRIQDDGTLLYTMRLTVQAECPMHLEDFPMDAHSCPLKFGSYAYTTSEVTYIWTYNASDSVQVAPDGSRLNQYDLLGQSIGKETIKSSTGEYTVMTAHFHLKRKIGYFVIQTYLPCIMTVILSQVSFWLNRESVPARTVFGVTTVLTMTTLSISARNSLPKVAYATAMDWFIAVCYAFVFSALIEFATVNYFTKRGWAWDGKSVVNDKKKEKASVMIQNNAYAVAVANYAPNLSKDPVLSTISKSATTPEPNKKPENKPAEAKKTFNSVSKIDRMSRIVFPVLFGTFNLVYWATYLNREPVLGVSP

Estrogen receptor = biological target: T3, Estrogen receptor (Homo sapiens, UniProt P03372)
T3 sequence (P03372 whole entry): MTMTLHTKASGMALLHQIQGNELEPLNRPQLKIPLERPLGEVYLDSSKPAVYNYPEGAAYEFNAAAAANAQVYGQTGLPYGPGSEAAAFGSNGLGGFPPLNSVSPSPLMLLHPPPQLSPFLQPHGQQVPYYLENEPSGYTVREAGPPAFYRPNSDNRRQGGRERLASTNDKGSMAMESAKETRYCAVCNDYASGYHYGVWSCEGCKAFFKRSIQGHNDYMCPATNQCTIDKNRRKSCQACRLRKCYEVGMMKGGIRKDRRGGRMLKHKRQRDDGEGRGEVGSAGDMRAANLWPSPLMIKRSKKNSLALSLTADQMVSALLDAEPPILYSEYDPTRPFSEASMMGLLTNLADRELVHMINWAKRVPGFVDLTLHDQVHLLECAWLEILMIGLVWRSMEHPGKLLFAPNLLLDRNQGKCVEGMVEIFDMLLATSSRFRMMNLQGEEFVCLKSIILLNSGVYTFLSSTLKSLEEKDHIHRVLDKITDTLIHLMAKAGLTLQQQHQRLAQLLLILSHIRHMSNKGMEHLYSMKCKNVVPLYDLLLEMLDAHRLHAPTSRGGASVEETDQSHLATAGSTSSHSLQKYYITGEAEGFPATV

[4] = biological target: T4, Muscarinic acetylcholine receptor M2 (Homo sapiens, UniProt P08172)
T4 sequence (P08172 whole entry): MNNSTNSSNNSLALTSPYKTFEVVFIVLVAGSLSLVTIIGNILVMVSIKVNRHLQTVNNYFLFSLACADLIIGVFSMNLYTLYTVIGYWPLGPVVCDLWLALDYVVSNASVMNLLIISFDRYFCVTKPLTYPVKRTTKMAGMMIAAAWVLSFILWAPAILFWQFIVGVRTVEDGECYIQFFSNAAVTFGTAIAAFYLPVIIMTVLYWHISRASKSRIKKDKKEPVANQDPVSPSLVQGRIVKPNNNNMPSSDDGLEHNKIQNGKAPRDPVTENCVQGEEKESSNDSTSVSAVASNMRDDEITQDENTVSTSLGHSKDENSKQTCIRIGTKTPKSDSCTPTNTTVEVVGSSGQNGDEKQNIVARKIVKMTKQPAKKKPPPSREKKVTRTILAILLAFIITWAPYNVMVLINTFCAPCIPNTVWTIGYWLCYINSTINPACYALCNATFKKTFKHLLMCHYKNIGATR
Also: assay procedure not described here.

Chain of Histamine H1 receptor (P35367 whole entry): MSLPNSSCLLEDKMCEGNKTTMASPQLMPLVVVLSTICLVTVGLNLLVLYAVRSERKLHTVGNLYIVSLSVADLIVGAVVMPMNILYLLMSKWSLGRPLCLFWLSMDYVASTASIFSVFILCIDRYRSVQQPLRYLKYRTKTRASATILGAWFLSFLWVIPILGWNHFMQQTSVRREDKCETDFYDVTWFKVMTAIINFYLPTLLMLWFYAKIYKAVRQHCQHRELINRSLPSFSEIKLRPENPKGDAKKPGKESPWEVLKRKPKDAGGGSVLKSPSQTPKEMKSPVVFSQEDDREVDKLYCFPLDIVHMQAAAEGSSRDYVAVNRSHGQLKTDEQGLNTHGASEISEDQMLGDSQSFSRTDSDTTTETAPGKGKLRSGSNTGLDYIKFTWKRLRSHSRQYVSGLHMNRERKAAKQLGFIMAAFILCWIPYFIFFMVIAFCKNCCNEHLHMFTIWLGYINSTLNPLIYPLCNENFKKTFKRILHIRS

Compound | AC50 (Histamine H1 receptor) [µM] | AC50 [3] [µM] | AC50 (Estrogen receptor) [µM] | also measured
CN(CC1(C)CCCO1)S(=O)(=O)c1ccc(Cl)c(S(N)(=O)=O)c1 (stereo not given) [MEFRUSIDE] | > 30 |  |  | 
CO[C@H]1/C=C/O[C@@]2(C)Oc3c(C)c(O)c4c(O)c(c(/C=N/N5CCN(C)CC5)c(O)c4c3C2=O)NC(=O)/C(C)=C\C=C\[C@H](C)[C@H](O)[C@@H](C)[C@@H](O)[C@@H](C)[C@H](OC(C)=O)[C@@H]1C [RIFAMPIN] |  |  |  | AC50 [1]: > 30 µM; AC50 [2]: > 30 µM
Cc1ccccc1C(=O)Nc1ccc(C(=O)N2CCCC(N(C)C)c3ccccc32)cc1 (stereo not given) [MOZAVAPTAN] |  | > 30 |  | 
CC(=O)O[C@]1(C(C)=O)CC[C@H]2[C@@H]3C=C(C)C4=CC(=O)CC[C@@H]4[C@H]3CC[C@@]21C [NOMEGESTROL ACETATE] | > 30 |  | > 30 | 
O=C1C(CC[S+]([O-])c2ccccc2)C(=O)N(c2ccccc2)N1c1ccccc1 (stereo not given) [SULFINPYRAZONE] |  |  | > 10 | 
CC(C)Cc1ccc(C(C)C(=O)O)cc1 (stereo not given) [IBUPROFEN] |  | > 30 | 21.3 | AC50 [1]: > 30 µM; AC50 [4]: > 10 µM; AC50 [2]: > 30 µM
CC(N)C12CC3CC(CC(C3)C1)C2 (stereo not given) [RIMANTADINE] |  |  | > 10 | 
C[N+](C)(C)C[C@H](O)CC(=O)[O-] [LEVOCARNITINE] |  | > 30 |  | 
COc1cc2nc(N3CCN(C(=O)C4CCCO4)CC3)nc(N)c2cc1OC (stereo not given) [TERAZOSIN] |  |  | > 30 | AC50 [1]: > 30 µM; AC50 [4]: > 10 µM; AC50 [2]: > 30 µM
CC(C)N(CCC(C(N)=O)(c1ccccc1)c1ccccn1)C(C)C (stereo not given) [DISOPYRAMIDE] | > 10 |  |  | AC50 [1]: > 30 µM; AC50 [2]: > 30 µM
FC(F)(F)c1ccc(CNc2ccc(Cc3c[nH]c4ncc(Cl)cc34)cn2)cn1 [PEXIDARTINIB] |  | > 3 |  | 
Nc1ccc(S(=O)(=O)Nc2nccs2)cc1 [SULFATHIAZOLE] |  |  | > 30 | AC50 [1]: > 30 µM; AC50 [4]: > 10 µM; AC50 [2]: > 30 µM
[H]/N=C(\N/C(=N/[H])Nc1ccc(Cl)cc1)NC(C)C [PROGUANIL] |  | > 30 |  | 
C#C[C@]1(O)CC[C@H]2[C@@H]3CCC4=CC(=O)CC[C@@H]4[C@H]3C(=C)C[C@@]21CC [ETONOGESTREL] | > 30 |  |  | 
C[C@H]1O[C@@H](n2cc(F)c(=O)[nH]c2=O)[C@H](O)[C@@H]1O [DOXIFLURIDINE] |  | > 30 |  | 
CN(C)CCc1c[nH]c2ccc(Cn3cncn3)cc12 [RIZATRIPTAN] | 5.79 |  |  | AC50 [1]: > 30 µM; AC50 [4]: > 10 µM; AC50 [2]: > 30 µM
COc1ccccc1Oc1c(NS(=O)(=O)c2ccc(C(C)(C)C)cc2)nc(-c2ncccn2)nc1OCCO [BOSENTAN] | > 10 |  | > 30 | AC50 [4]: > 10 µM; AC50 [2]: > 30 µM
C[C@]12C=CC(=O)N[C@@H]1CC[C@@H]1[C@@H]2CC[C@]2(C)[C@@H](C(=O)Nc3cc(C(F)(F)F)ccc3C(F)(F)F)CC[C@@H]12 [DUTASTERIDE] | > 10 |  | > 10 | 
CC(C)(O)CNc1nc(Nc2ccnc(C(F)(F)F)c2)nc(-c2cccc(C(F)(F)F)n2)n1 [ENASIDENIB] |  | > 30 |  | 
O=C(O)COc1ccc(C(=O)c2cccs2)c(Cl)c1Cl |  | > 10 |  | 
CCCN(CCC)C(=O)Cc1c(-c2ccc(Cl)cc2)nc2ccc(Cl)cn12 [ALPIDEM] | > 30 |  | > 30 | AC50 [1]: > 10 µM; AC50 [4]: > 10 µM
C[C@H]1c2cccc(O)c2C(=O)C2=C(O)[C@]3(O)C(=O)C(C(N)=O)=C(O)[C@@H](N(C)C)[C@@H]3[C@@H](O)[C@@H]21 [DOXYCYCLINE] |  |  |  | AC50 [1]: > 30 µM; AC50 [4]: > 10 µM; AC50 [2]: > 30 µM

Compound | AC50 (Histamine H1 receptor) [µM] | AC50 [3] [µM] | AC50 (Estrogen receptor) [µM] | also measured
CC(CN1CC(=O)NC(=O)C1)N1CC(=O)NC(=O)C1 (stereo not given) [RAZOXANE] |  | > 30 |  | 
CC(CCc1ccccc1)NCC(O)c1ccc(O)c(C(N)=O)c1 (stereo not given) [LABETALOL] |  | > 30 |  | 
N[C@@H](CS)C(=O)O [CYSTEINE] |  | > 30 |  | 
CN1C(C(=O)Nc2ccccn2)=C(O)c2ccccc2S1(=O)=O [PIROXICAM] |  |  | > 10 | 
CN1CCCCC1CCN1c2ccccc2Sc2ccc([S+](C)[O-])cc21 (stereo not given) [MESORIDAZINE] |  | > 30 |  | 
CCCC(CCC)C(=O)O [VALPROIC ACID] |  |  | > 30 | AC50 [1]: > 30 µM; AC50 [4]: > 10 µM; AC50 [2]: > 30 µM
CCOC(=O)C1=C[C@@H](OC(CC)CC)[C@H](NC(C)=O)[C@@H](N)C1 [OSELTAMIVIR] |  | > 30 |  | 
C[C@]1(Cn2ccnn2)[C@H](C(=O)O)N2C(=O)C[C@H]2S1(=O)=O [TAZOBACTAM] |  | > 30 |  | 
COc1c2ccoc2cc2oc(=O)ccc12 [BERGAPTEN] |  | > 30 |  | 
CC(C(=O)O)c1ccc2c(c1)[nH]c1ccc(Cl)cc12 (stereo not given) [CARPROFEN] | > 10 |  | > 30 | 
CC(C)OC(=O)CCC/C=C\C[C@@H]1[C@@H](/C=C/C(F)(F)COc2ccccc2)[C@H](O)C[C@@H]1O [TAFLUPROST] |  | > 30 |  | 
COc1ccc(CC2c3cc(OC)c(OC)cc3CC[N+]2(C)CCC(=O)OCCCCCOC(=O)CC[N+]2(C)CCc3cc(OC)c(OC)cc3C2Cc2ccc(OC)c(OC)c2)cc1OC (stereo not given) | > 30 |  | > 30 | 
O=C1CN(/N=C/c2ccc(-c3ccc([N+](=O)[O-])cc3)o2)C(O)=N1 [DANTROLENE] | > 10 |  |  | 
C=C[C@H]1C[N@@]2CC[C@H]1C[C@@H]2[C@@H](O)c1ccnc2ccc(OC)cc12 [QUINIDINE] | > 10 |  | > 30 | 
CC[C@H]1OC(=O)[C@H](C)C(=O)[C@H](C)[C@@H](O[C@@H]2O[C@H](C)C[C@H](N(C)C)[C@H]2O)[C@](C)(OC)C[C@@H](C)C(=O)[C@H](C)[C@H]2N(CCCCn3cnc(-c4cccnc4)c3)C(=O)O[C@]12C [TELITHROMYCIN] |  | > 30 |  | 
CCN(CC)CCNC(=O)c1c(C)[nH]c(/C=C2\C(=O)Nc3ccc(F)cc32)c1C [SUNITINIB] |  |  |  | AC50 [4]: 7.19 µM
C[C@@H]1C[C@H]2[C@@H]3CCC4=CC(=O)C=C[C@]4(C)[C@@]3(Cl)[C@@H](O)C[C@]2(C)[C@@]1(OC(=O)c1ccco1)C(=O)CCl [MOMETASONE FUROATE] |  | > 30 |  | 
CC1=C(/C=C/C(C)=C/C=C/C(C)=C/C(=O)O)C(C)(C)CCC1 [TRETINOIN] |  | > 3 |  | 
O=C1CCc2cc(OCCCCc3nnnn3C3CCCCC3)ccc2N1 [CILOSTAZOL] |  |  | > 30 | 
Cc1onc(-c2ccccc2)c1C(=O)N[C@@H]1C(=O)N2[C@@H]1SC(C)(C)[C@@H]2C(=O)O [OXACILLIN] |  | > 30 |  | 
C[C@@H](NCCCc1cccc(C(F)(F)F)c1)c1cccc2ccccc12 | 16 |  |  | 
